Results published in ChEMBL document CHEMBL1201862, “PubChem BioAssay data set” (2004).
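Briefly, cells in 96-well plates were exposed to five compound concentrations for 48 h, and endpoints were estimated by linear interpolation. GI50: concentration for 50% inhibition of growth.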 Active and inactive are the calls of the source. Rule as the data show it: active = GI50 up to about 1.1 µM and inactive = higher.

Assays:
Assay in all cases: NCI-60 cell line screen, 48 h
SK-MEL-2 = test system: SK-MEL-2
MCF7 = test system: MCF7
PC-3 = test system: PC-3
HT-29 = test system: HT-29
UACC-62 = test system: UACC-62
HCT-116 = test system: HCT-116
K562 = test system: K562
KM12 = test system: KM12
MDA-MB-231 = test system: MDA-MB-231
EKVX = test system: EKVX
786-0 = test system: 786-0
MOLT-4 = test system: MOLT-4
A549 = test system: A549
NCI-H460 = test system: NCI-H460
NCI-H226 = test system: NCI-H226
T47D = test system: T47D
UACC-257 = test system: UACC-257
OVCAR-4 = test system: OVCAR-4
NCI-H522 = test system: NCI-H522

SMILES | GI50 (SK-MEL-2) | GI50 (MCF7) | GI50 (PC-3) | GI50 (HT-29) | GI50 (UACC-62) | GI50 (HCT-116) | GI50 (K562) | GI50 (KM12) | GI50 (MDA-MB-231) | GI50 (EKVX) | GI50 (786-0) | GI50 (MOLT-4) | GI50 (A549) | GI50 (NCI-H460) | GI50 (NCI-H226) | GI50 (T47D) | GI50 (UACC-257) | GI50 (OVCAR-4) | GI50 (NCI-H522)
COc1cc(/N=N/N(C)C)c(C(C)c2c3cc(OC)c(OC)cc3cc[n+]2C)cc1OC (stereo not given) | 24.9 µM (inactive) | 33.4 µM (inactive) | 38.5 µM (inactive) | 35.4 µM (inactive) | 25.1 µM (inactive) | 30 µM (inactive) | 18.1 µM (inactive) | 14.3 µM (inactive) | 26.3 µM (inactive) | > 100 µM (inactive) | 51.8 µM (inactive) | 56.1 µM (inactive) | > 100 µM (inactive) | 30.8 µM (inactive) | 78.5 µM (inactive) | 23.4 µM (inactive) | 38 µM (inactive) | 51.9 µM (inactive) | 
CCCCN(CCCC)CC(O)c1cc(-c2ccc(Cl)c(Cl)c2)nc2c(Cl)cc(Cl)cc12 (stereo not given) | > 100 µM (inactive) | 6.84 µM (inactive) | 36.4 µM (inactive) | > 100 µM (inactive) | > 100 µM (inactive) | > 100 µM (inactive) | > 10 µM (inactive) |  | 7.64 µM (inactive) | 49.1 µM (inactive) | > 100 µM (inactive) | 46.2 µM (inactive) |  | > 100 µM (inactive) |  | 37.2 µM (inactive) | 86.1 µM (inactive) | > 100 µM (inactive) | 
CCc1nc2ccc(/N=N/N(C)C)cc2[nH]1 | > 100 µM (inactive) |  | > 100 µM (inactive) | > 100 µM (inactive) | > 100 µM (inactive) | > 100 µM (inactive) | > 100 µM (inactive) | > 100 µM (inactive) | > 100 µM (inactive) | > 100 µM (inactive) | > 100 µM (inactive) | > 100 µM (inactive) | > 100 µM (inactive) | > 100 µM (inactive) | > 100 µM (inactive) | > 100 µM (inactive) | > 100 µM (inactive) | > 100 µM (inactive) | > 100 µM (inactive)
Cc1cc(=O)nc(S(=O)(=O)NC(=S)Nc2ccc(Br)cc2)[nH]1 | > 100 µM (inactive) |  | > 100 µM (inactive) | > 100 µM (inactive) | > 100 µM (inactive) |  |  |  | > 100 µM (inactive) | 42.1 µM (inactive) | > 100 µM (inactive) | 36 µM (inactive) |  | > 100 µM (inactive) | > 100 µM (inactive) | > 100 µM (inactive) | > 100 µM (inactive) | 93.5 µM (inactive) | 18.6 µM (inactive)
NC(c1ccccc1)(C(F)(F)F)P1(=O)OC(=O)c2ccccc2O1 (stereo not given) | > 100 µM (inactive) | > 100 µM (inactive) | > 100 µM (inactive) | > 100 µM (inactive) | > 100 µM (inactive) | > 100 µM (inactive) | > 100 µM (inactive) | > 100 µM (inactive) | > 100 µM (inactive) | > 100 µM (inactive) | > 100 µM (inactive) | 48.8 µM (inactive) | > 100 µM (inactive) | > 100 µM (inactive) | > 100 µM (inactive) | > 100 µM (inactive) | > 100 µM (inactive) | > 100 µM (inactive) | 
COc1ccc(OC)c(C2CCc3cnc4nc(N)nc(N)c4c3C2)c1 (stereo not given) | > 100 µM (inactive) | > 100 µM (inactive) | > 100 µM (inactive) | 70.1 µM (inactive) | 74 µM (inactive) | 46 µM (inactive) | 46.9 µM (inactive) | > 100 µM (inactive) | > 100 µM (inactive) | > 100 µM (inactive) | 66.7 µM (inactive) | > 100 µM (inactive) | 59.6 µM (inactive) | 57.3 µM (inactive) |  | > 100 µM (inactive) | 61.9 µM (inactive) | > 100 µM (inactive) | > 100 µM (inactive)
NC1=NCC(CN2CCCC2)O1 (stereo not given) | > 100 µM (inactive) | > 100 µM (inactive) | > 100 µM (inactive) | > 100 µM (inactive) | > 100 µM (inactive) | > 100 µM (inactive) | > 100 µM (inactive) | > 100 µM (inactive) | > 100 µM (inactive) | > 100 µM (inactive) | > 100 µM (inactive) | > 100 µM (inactive) | > 100 µM (inactive) | > 100 µM (inactive) |  | > 100 µM (inactive) | > 100 µM (inactive) | > 100 µM (inactive) | > 100 µM (inactive)
CC(C)CCCC(C)[C@H]1CC[C@H]2N/C(=N/Cc3ccccc3)CCC[C@]12C (stereo not given in full) | 1.97 µM (inactive) | 1.71 µM (inactive) | 1.81 µM (inactive) | 1.28 µM (inactive) | 1.83 µM (inactive) | 2.6 µM (inactive) | 1.26 µM (inactive) | 1.88 µM (inactive) | 2.05 µM (inactive) |  | 2 µM (inactive) | 1.88 µM (inactive) | 1.83 µM (inactive) | 1.66 µM (inactive) | 2.07 µM (inactive) | 2.83 µM (inactive) | 2.42 µM (inactive) | 1.98 µM (inactive) | 
Nc1cccc(OCC2CCCN3CCCCC23)c1 (stereo not given) | 20.1 µM (inactive) | 19.5 µM (inactive) | 16.9 µM (inactive) | 12.6 µM (inactive) | 17.1 µM (inactive) | 16.3 µM (inactive) | 22 µM (inactive) | 17.6 µM (inactive) | 17.2 µM (inactive) | 17.2 µM (inactive) | 15.6 µM (inactive) | 20.9 µM (inactive) | 21.4 µM (inactive) | 19 µM (inactive) | 41.7 µM (inactive) | 17.8 µM (inactive) | 19 µM (inactive) | 23.2 µM (inactive) | 
OC1CSc2nc3ccccc3n2C1 (stereo not given) |  | > 100 µM (inactive) | > 100 µM (inactive) | > 100 µM (inactive) | > 100 µM (inactive) | > 100 µM (inactive) | > 100 µM (inactive) | > 100 µM (inactive) | > 100 µM (inactive) | > 100 µM (inactive) | > 100 µM (inactive) | > 100 µM (inactive) | > 100 µM (inactive) | > 100 µM (inactive) | > 100 µM (inactive) | > 100 µM (inactive) | > 100 µM (inactive) |  | 
O=C1Nc2ccccc2/C1=N/N1C(=O)/C(=C/c2ccccc2S)N=C1c1ccccc1 | 42.4 µM (inactive) | 58.7 µM (inactive) | 47.8 µM (inactive) | > 100 µM (inactive) | 90.6 µM (inactive) | 99.8 µM (inactive) | 27.9 µM (inactive) | 66.4 µM (inactive) | > 100 µM (inactive) | 48.3 µM (inactive) | 79.8 µM (inactive) | 19.5 µM (inactive) | 89.5 µM (inactive) | 73.6 µM (inactive) |  | 25.5 µM (inactive) | > 100 µM (inactive) | 27 µM (inactive) | 40.5 µM (inactive)
COc1ccc(Oc2nc3c(N)cc(C(F)(F)F)cc3nc2-c2ccccc2)cc1 | 12.2 µM (inactive) | 11.6 µM (inactive) | 19.8 µM (inactive) | 10.8 µM (inactive) | 31.4 µM (inactive) | 27.7 µM (inactive) | > 100 µM (inactive) | 12.8 µM (inactive) | 24.8 µM (inactive) | 12.8 µM (inactive) | 20.5 µM (inactive) | 42.2 µM (inactive) |  | 21.8 µM (inactive) | 11.9 µM (inactive) | 8.04 µM (inactive) | 39.2 µM (inactive) | > 100 µM (inactive) | 
CC1(C)Cc2ccccc2C(C)(Cl)C(=O)N1 (stereo not given) |  | > 10 µM (inactive) | > 10 µM (inactive) | > 10 µM (inactive) | > 10 µM (inactive) | > 10 µM (inactive) | > 10 µM (inactive) | > 10 µM (inactive) | > 10 µM (inactive) | > 10 µM (inactive) | > 10 µM (inactive) | > 10 µM (inactive) | > 10 µM (inactive) | > 10 µM (inactive) | > 10 µM (inactive) | > 10 µM (inactive) | > 10 µM (inactive) | > 10 µM (inactive) | 
CN(C)CCOC(=O)c1ccc(N)cc1 |  | 32.6 µM (inactive) | 12.1 µM (inactive) | 27 µM (inactive) | 36.8 µM (inactive) | 54.7 µM (inactive) | 30 µM (inactive) | 37.2 µM (inactive) | 16.1 µM (inactive) |  | 44.8 µM (inactive) | 28.2 µM (inactive) | 52.4 µM (inactive) | 31.8 µM (inactive) | 21.5 µM (inactive) | 58.5 µM (inactive) | 19.4 µM (inactive) | 31.6 µM (inactive) | 20.4 µM (inactive)
CCOC(=O)c1c(C)n(Cc2ccccc2)c2c1cc(O)c1[nH]c3c(c12)CCCC3 | 2.31 µM (inactive) | 2.36 µM (inactive) | 2.43 µM (inactive) | 13.4 µM (inactive) | 1.9 µM (inactive) | 6.1 µM (inactive) | 3.33 µM (inactive) | 3.17 µM (inactive) | 5.35 µM (inactive) | 2.69 µM (inactive) | 16.1 µM (inactive) | 2.43 µM (inactive) | 6.52 µM (inactive) | 2.82 µM (inactive) |  | 2.03 µM (inactive) | 17.5 µM (inactive) | 1.07 µM (active) | 1.16 µM (inactive)
CN(N)/N=N/c1[nH]cnc1[N+](=O)[O-] | > 100 µM (inactive) |  | > 100 µM (inactive) | > 100 µM (inactive) | > 100 µM (inactive) | 34.8 µM (inactive) | 19.6 µM (inactive) | > 100 µM (inactive) | 21.7 µM (inactive) | 94.8 µM (inactive) | 18.7 µM (inactive) | 14.6 µM (inactive) | > 100 µM (inactive) | > 100 µM (inactive) | > 100 µM (inactive) | 20.6 µM (inactive) | > 100 µM (inactive) | 56.1 µM (inactive) | > 100 µM (inactive)
